A value given as a limit tells only on which side of the number the result lay.

T1 sequence (P17931 whole entry): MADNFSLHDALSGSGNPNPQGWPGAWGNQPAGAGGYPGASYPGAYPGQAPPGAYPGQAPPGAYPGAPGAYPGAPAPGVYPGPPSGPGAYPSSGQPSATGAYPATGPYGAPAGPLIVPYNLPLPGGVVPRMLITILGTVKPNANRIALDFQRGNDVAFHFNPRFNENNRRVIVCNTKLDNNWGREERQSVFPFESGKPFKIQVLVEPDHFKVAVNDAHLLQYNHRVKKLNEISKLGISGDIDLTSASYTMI

One test concerns the target T1, his-galectin-3 (Homo sapiens, UniProt P17931).
T1 construct: purchased Abcam
The experiment in a line: TR-FRET assay (in vitro galectin-3 binding inhibitory activity test). The settings on record: Table 1; compound at 20 μM; 60 nM his-galectin-3, 15 nM biotin-ASF; read-out: % Inhibitory activity (at 20 μM). The procedure:
TR-FRET Assay (In Vitro Galectin-3 Binding Inhibitory Activity Test)
TR-FRET assay was performed in ½ Area Plate-96 (PerkinElmer). Final concentrations of components in the assay were 60 nM his-galectin-3 (Abcam), 15 nM biotin-ASF (Axxora), 2 nM Mab anti-6×His Tb (Cisbio) and 20 nM SA-d2 (Cisbio). The reaction was performed in a buffer containing 25 mM HEPES, 100 mM NaCl, 0.005% Tween 20 and 0.05% BSA. 20 μL his-galectin-3 and 1 μL compound were mixed first, and then 20 μL biotin-ASF, 5 μL anti-His Tb and 5 μL SA-d2 were added in order. After incubation for at least 3.5 hours at RT, TR-FRET signals were measured at 615/665 nm […] wavelengths using a VICTOR Nivo (PerkinElmer). The positive control used DMSO instead of the compound, and the negative control excluded ASF-biotin. N-acetyl-D-lactosamine (LacNAc), an endogenous ligand unit of galectin-3, was evaluated together as a control substance to compare galectin-3 binding inhibitory activity.
Background: Time-resolved FRET reads energy transfer from a long-lived donor to a nearby acceptor.
As for `O=C(CO[C@@H]1[C@@H](n2cc(-c3cc(F)c(F)c(F)c3)nn2)[C@@H](O)[C@@H](CO)O[C@@]12CCCO2)N1CCC(O)CC1` [Compound A22, 2-(((5S,7R,8R,9S,10R)-8-hydroxy-7-(hydroxymethyl)-9-(4-(3,4,5-trifluorophenyl)-1H-1,2,3-triazol-1-yl)-1,6-dioxaspiro[4.5]decan-10-yl)oxy)-1-(4-hydroxypiperidin1-yl)ethanone], the inhibition at 20 µM is 25 to 50%.
On the same count and under the same terms, under `O=C(CO[C@@H]1[C@@H](n2cc(-c3cc(F)c(F)c(F)c3)nn2)[C@@H](O)[C@@H](CO)O[C@@]12CCCO2)Nc1ccccc1` [Compound A23, 2-(((5S,7R,8R,9S,10R)-8-hydroxy-7-(hydroxymethyl)-9-(4-(3,4,5-trifluorophenyl)-1H-1,2,3-triazol-1-yl)-1,6-dioxaspiro[4.5]decan-10-yl)oxy)-N-phenylacetamide] stands 25 to 50%.
Still for that read-out and setting: next, `OC[C@H]1O[C@@]2(CCCCO2)[C@H](O)[C@@H](n2cc(-c3cc(F)c(F)c(F)c3)nn2)[C@H]1O` [Compound A24, (2R,3R,4S,5R,6S)-2-(hydroxymethyl)-4-(4-(3,4,5-trifluorophenyl)-1H-1,2,3-triazol-1-yl)-1,7-dioxaspiro[5.5]undecane-3,5-diol]: 25 to 50%.
Same read-out and setting: next, `OC[C@H]1O[C@@]2(CCCCO2)[C@H](OCc2ccccc2)[C@@H](n2cc(-c3cc(F)c(F)c(F)c3)nn2)[C@H]1O` [Compound A25, (2R,3R,4S,5R,6S)-5-(benzyloxy)-2-(hydroxymethyl)-4-(4-(3,4,5-trifluorophenyl)-1H-1,2,3-triazol-1-yl)-1,7-dioxaspiro[5.5]undecan-3-ol]: 25 to 50%.
Take `O=S1(=O)CCC(CO[C@@H]2[C@@H](n3cc(-c4cc(F)c(F)c(F)c4)nn3)[C@@H](O)[C@@H](CO)O[C@@]23CCCO3)CC1` [Compound A26, 4-((((5S,7R,8R,9S,10R)-8-hydroxy-7-(hydroxymethyl)-9-(4-(3,4,5-trifluorophenyl)-1H-1,2,3-triazol-1-yl)-1,6-dioxaspiro[4.5]decan-10-yl)oxy)methyl)tetrahydro-2H-thiopyran 1,1-dioxide]: the inhibition at 20 µM was 25 to 50%.
On the same count and under the same terms, under `OC[C@H]1O[C@@]2(CCCO2)[C@H](OCC(F)F)[C@@H](n2cc(-c3cc(F)c(F)c(F)c3)nn2)[C@H]1O` [Compound A27, (5S,7R,8R,9S,10R)-10-(2,2-difluoroethoxy)-7-(hydroxymethyl)-9-(4-(3,4,5-trifluorophenyl)-1H-1,2,3-triazol-1-yl)-1,6-dioxaspiro[4.5]decan-8-ol] stands 25 to 50%; under `Cn1nnc(-c2ccc(CO[C@@H]3[C@@H](n4cc(-c5cc(F)c(F)c(F)c5)nn4)[C@@H](O)[C@@H](CO)O[C@@]34CCCO4)cc2)n1` [Compound A28, (5S,7R,8R,9S,10R)-7-(hydroxymethyl)-10-((4-(2-methyl-2H-tetrazol-5-yl)benzyl)oxy)-9-(4-(3,4,5-trifluorophenyl)-1H-1,2,3-triazol-1-yl)-1,6-dioxaspiro[4.5]decan-8-ol], 25 to 50%.
In the case of `O=C(CO[C@@H]1[C@@H](n2cc(-c3cc(F)c(F)c(F)c3)nn2)[C@@H](O)[C@@H](CO)O[C@@]12CCCO2)Nc1ccc(Cl)nn1` [Compound A29, N-(6-chloropyridazin-3-yl)-2-(((5S,7R,8R,9S,10R)-8-hydroxy-7-(hydroxymethyl)-9-(4-(3,4,5-trifluorophenyl)-1H-1,2,3-triazol-1-yl)-1,6-dioxaspiro[4.5]decan-10-yl)oxy)acetamide], the inhibition at 20 µM is < 25%.
Consider `OC[C@H]1O[C@]2(OCC[C@H]2c2ccccc2)[C@H](O)[C@@H](n2cc(-c3cc(F)c(F)c(F)c3)nn2)[C@H]1O` [Compound A30, (4S,5S,7R,8R,9S,10R)-7-(hydroxymethyl)-4-phenyl-9-(4-(3,4,5-trifluorophenyl)-1H-1,2,3-triazol-1-yl)-1,6-dioxaspiro[4.5]decane-8,10-diol], for which the inhibition at 20 µM was < 25%.
In the case of `O=C(O[C@@H]1[C@@H](n2cc(-c3cc(F)c(F)c(F)c3)nn2)[C@@H](O)[C@@H](CO)O[C@@]12CCCO2)c1ccccc1` [Compound A31, (5S,7R,8R,9S,10R)-8-hydroxy-7-(hydroxymethyl)-9-(4-(3,4,5-trifluorophenyl)-1H-1,2,3-triazol-1-yl)-1,6-dioxaspiro[4.5]decan-10-yl benzoate], the inhibition at 20 µM fell in the range of 25 to 50%.
Still for that read-out and setting: under `COC(=O)CO[C@@H]1[C@@H](n2cc(-c3cc(F)c(F)c(F)c3)nn2)[C@@H](O)[C@@H](CO)O[C@@]12CCCCO2` [Compound A32, methyl-2-(((2R,3R,4S,5R,6S)-3-hydroxy-2-(hydroxymethyl)-4-(4-(3,4,5-trifluorophenyl)-1H-1,2,3-triazol-1-yl)-1,7-dioxaspiro[5.5]undecan-5-yl)oxy)acetate] stands 25 to 50%; under `O=C(CO[C@@H]1[C@@H](n2cc(-c3cc(F)c(F)c(F)c3)nn2)[C@@H](O)[C@@H](CO)O[C@@]12CCCO2)N1CC(F)(F)C1` [Compound A33, 1-(3,3-difluoroazetidin-1-yl)-2-(((5S,7R,8R,9S,10R)-8-hydroxy-7-(hydroxymethyl)-9-(4-(3,4,5-trifluorophenyl)-1H-1,2,3-triazol-1-yl)-1,6-dioxaspiro[4.5]decan-10-yl)oxy)ethanone], 25 to 50%; under `O=C(CO[C@@H]1[C@@H](n2cc(-c3cc(F)c(F)c(F)c3)nn2)[C@@H](O)[C@@H](CO)O[C@@]12CCCO2)N1CC(O)C1` [Compound A34, 2-(((5S,7R,8R,9S,10R)-8-hydroxy-7-(hydroxymethyl)-9-(4-(3,4,5-trifluorophenyl)-1H-1,2,3-triazol-1-yl)-1,6-dioxaspiro[4.5]decan-10-yl)oxy)-1-(3-hydroxyazetidin-1-yl)ethanone], 25 to 50%.
Same read-out and setting: under `OC[C@H]1O[C@@]2(CCCO2)[C@H](OCc2ccc3c(c2)OCO3)[C@@H](n2cc(-c3cc(F)c(F)c(F)c3)nn2)[C@H]1O` [Compound A35, (5S,7R,8R,9S,10R)-10-(benzo[d][1,3]dioxol-5-ylmethoxy)-7-(hydroxymethyl)-9-(4-(3,4,5-trifluorophenyl)-1H-1,2,3-triazol-1-yl)-1,6-dioxaspiro[4.5]decan-8-ol] stands 25 to 50%; under `OC[C@H]1O[C@@]2(CCCO2)[C@H](OCc2ccccc2O)[C@@H](n2cc(-c3cc(F)c(F)c(F)c3)nn2)[C@H]1O` [Compound A37, (5S,7R,8R,9S,10R)-10-((2-hydroxybenzyl)oxy)-7-(hydroxymethyl)-9-(4-(3,4,5-trifluorophenyl)-1H-1,2,3-triazol-1-yl)-1,6-dioxaspiro[4.5]decan-8-ol], 25 to 50%; under `OC[C@H]1O[C@@]2(CCCO2)[C@H](OCc2cccc(O)c2)[C@@H](n2cc(-c3cc(F)c(F)c(F)c3)nn2)[C@H]1O` [Compound A38, (5S,7R,8R,9S,10R)-10-((3-hydroxybenzyl)oxy)-7-(hydroxymethyl)-9-(4-(3,4,5-trifluorophenyl)-1H-1,2,3-triazol-1-yl)-1,6-dioxaspiro[4.5]decan-8-ol], 25 to 50%.
For the compound `O=C(O[C@@H]1[C@@H](n2cc(-c3cc(F)c(F)c(F)c3)nn2)[C@@H](O)[C@@H](CO)O[C@@]12CCCO2)c1cccc(F)c1` [Compound A39, (5S,7R,8R,9S,10R)-8-hydroxy-7-(hydroxymethyl)-9-(4-(3,4,5-trifluorophenyl)-1H-1,2,3-triazol-1-yl)-1,6-dioxaspiro[4.5]decan-10-yl 3-fluorobenzoate], the inhibition at 20 µM was in the range of 50 to 75%.
`COc1cccc(C(=O)O[C@@H]2[C@@H](n3cc(-c4cc(F)c(F)c(F)c4)nn3)[C@@H](O)[C@@H](CO)O[C@@]23CCCO3)c1` [Compound A40, (5S,7R,8R,9S,10R)-8-hydroxy-7-(hydroxymethyl)-9-(4-(3,4,5-trifluorophenyl)-1H-1,2,3-triazol-1-yl)-1,6-dioxaspiro[4.5]decan-10-yl 3-methoxybenzoate]: the inhibition at 20 µM is 25 to 50%.
The same measure, in the same setting: under `OC[C@H]1O[C@@]2(CCCCO2)[C@H](OCc2ccc3c(c2)OCO3)[C@@H](n2cc(-c3cc(F)c(F)c(F)c3)nn2)[C@H]1O` [Compound A44, (2R,3R,4S,5R,6S)-5-(benzo[d][1,3]dioxol-5-ylmethoxy)-2-(hydroxymethyl)-4-(4-(3,4,5-trifluorophenyl)-1H-1,2,3-triazol-1-yl)-1,7-dioxaspiro[5.5]undecan-3-ol] stands 25 to 50%.
On to `OC[C@H]1O[C@@]2(CCCCO2)[C@H](OCc2nn[nH]n2)[C@@H](n2cc(-c3cc(F)c(F)c(F)c3)nn2)[C@H]1O` [Compound A45, (2R,3R,4S,5R,6S)-5-((2H-tetrazol-5-yl)methoxy)-2-(hydroxymethyl)-4-(4-(3,4,5-trifluorophenyl)-1H-1,2,3-triazol-1-yl)-1,7-dioxaspiro[5.5]undecan-3-ol], for which the inhibition at 20 µM was in the range of 50 to 75%.

Staying with this test, now noted: Table 3, found values; compound at 20 μM; 60 nM his-galectin-3, 15 nM biotin-ASF; read-out: % Inhibitory activity (at 20 μM).
Take `O=C(CO[C@@H]1[C@@H](n2cc(-c3cc(F)c(F)c(F)c3)nn2)[C@@H](O)[C@@H](CO)O[C@@]12CCCO2)N1CCC(O)CC1` [Compound A22, 2-(((5S,7R,8R,9S,10R)-8-hydroxy-7-(hydroxymethyl)-9-(4-(3,4,5-trifluorophenyl)-1H-1,2,3-triazol-1-yl)-1,6-dioxaspiro[4.5]decan-10-yl)oxy)-1-(4-hydroxypiperidin1-yl)ethanone]: the inhibition at 20 µM is 28.1%.
Same read-out and setting: next, `COC(=O)CO[C@@H]1[C@@H](n2cc(-c3cc(F)c(F)c(F)c3)nn2)[C@@H](O)[C@@H](CO)O[C@@]12CCCCO2` [Compound A32, methyl-2-(((2R,3R,4S,5R,6S)-3-hydroxy-2-(hydroxymethyl)-4-(4-(3,4,5-trifluorophenyl)-1H-1,2,3-triazol-1-yl)-1,7-dioxaspiro[5.5]undecan-5-yl)oxy)acetate]: 36.7%.

Staying with this test, now noted: read-out: % Inhibitory activity (at 20 μM), Table 1; compound at 20 μM; 60 nM his-galectin-3, 15 nM biotin-ASF.
For the compound `O=C(O[C@H]1[C@@H](n2cc(-c3cc(F)c(F)c(F)c3)nn2)[C@@H](O)[C@@H](CO)O[C@@]12CCCO2)c1ccccc1` [Compound A42, (5S,7R,8R,9S,10S)-8-hydroxy-7-(hydroxymethyl)-9-(4-(3,4,5-trifluorophenyl)-1H-1,2,3-triazol-1-yl)-1,6-dioxaspiro[4.5]decan-10-yl benzoate], the inhibition at 20 µM was < 25%.

The values above are taken from patent publication US20250026778A1 (TIUMBIO CO., LTD., priority 2021, published 2025).
